Structures can show the parent of a compound that is named as a salt.
Columns and labels:
[1] = system: saos-2 cells; assay: Anticalcification efficacy in saos-2 cells (osteogenic medium, Alizarin Red staining); type: cell-based; details: Homo sapiens, 168 h, test compound 1 µM, 7 days osteogenic medium, Alizarin Red absorbance 540 nm, read-out: calcification inhibition
Procedure: To confirm the inhibitory effect of calcification in saos-2 cells in which calcification is induced by overexpression of TNAP, saos-2 cells were cultured in a culture medium in an incubator at 37°C, 95% humidity, and 5% CO2. RPMI-1640 (Corning) supplemented with 10% FBS (Gibco) and 1% Pen/Strep (Gibco) was used as the culture medium.
Saos-2 cells were seeded in a 48-well plate at the density of 1.5 x 10^4 cells/well and used in the experiment when they reached 80-90% confluence after stabilization for 2 days.
After saos-2 cells were cultured in a 48-well plate to 80-90% confluence, the culture medium was removed and replaced with an osteogenic medium (OM). DMEM (Gibco) containing 10% FBS, 1% Pen/Strep, 100 nM dexamethasone (Sigma), 10 mM β-glycerophosphate (Sigma), and 0.05 mM L-ascorbic acid (Sigma) was used as the OM. Osteogenic differentiation of saos-2 cells by OM was induced for 7 days, and OM was replaced every 2 to 3 days.
When inducing calcification through OM in saos-2 cells, the cells were treated with concentrations of […] of the TNAP inhibitor test compounds with the OM replacement cycle, except for the control group (OM).
After 7 days of OM induction, the medium was removed from each well and the plate was washed twice with PBS. Cells were fixed with 4% paraformaldehyde for 1 hour, then the fixative was removed and washed twice with deionized water (DW). ARS solution was added to the plate and shaken for 1 hour to stain the cells. When the cells were sufficiently stained red, the dye was removed, the cells were washed carefully with DW, dried, and then photographs were taken of the stained cells. The red-stained area represents calcification induced by OM, and the degree of calcification was determined based on the degree of redness. To quantify this, 10% cetylpyridinium chloride was dispensed into the wells and the dye was dissolved. The dye-dissolved solution was transferred to each well of a 96 well plate and absorbance was measured at 540 nm.
The degree of decrease in the measured absorbance by the test compounds based on the absorbance for OM was evaluated as the degree of inhibition of calcification.

[2] = biological target: T1, TNAP (Homo sapiens, UniProt P05186); assay: TNAP inhibitory activity, colorimetric assay (alkaline phosphatase assay kit ab83369, pNPP substrate); type: biochemical; details: TNAP enzyme, 2 hours at room temperature, absorbance 405 nm
T1 sequence (P05186 18-502 limits assumed): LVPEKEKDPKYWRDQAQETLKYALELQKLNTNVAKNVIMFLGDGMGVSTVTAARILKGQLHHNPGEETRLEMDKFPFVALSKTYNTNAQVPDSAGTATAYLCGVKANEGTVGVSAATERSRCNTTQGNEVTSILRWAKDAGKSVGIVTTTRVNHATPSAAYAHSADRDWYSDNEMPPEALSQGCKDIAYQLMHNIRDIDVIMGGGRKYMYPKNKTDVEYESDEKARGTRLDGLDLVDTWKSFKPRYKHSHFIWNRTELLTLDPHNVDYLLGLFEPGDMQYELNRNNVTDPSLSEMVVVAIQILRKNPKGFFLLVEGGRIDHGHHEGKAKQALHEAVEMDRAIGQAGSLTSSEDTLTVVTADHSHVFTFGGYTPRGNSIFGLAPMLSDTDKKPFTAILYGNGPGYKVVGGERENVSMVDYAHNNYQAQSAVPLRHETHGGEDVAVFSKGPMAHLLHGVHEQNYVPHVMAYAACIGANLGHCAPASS
Procedure: The TNAP inhibitory activity of the compounds according to the present invention was analyzed by colorimetric assay.
The experiments were performed according to the protocol of the alkaline phosphatase assay kit ab83369.
TNAP enzyme at a concentration of 0.2 ng/µl was dispensed into a 96-well plate (Costar) (10 µl/well), to which the 10-fold diluted test substance was added (15 µl/well). The plate was incubated at room temperature, shielded from light, for 10 minutes to allow the enzyme and compound to act. After incubation, 125 µl of 1 mM substrate (pNPP) was added to each well of the plate, and the plate was incubated for 2 hours at room temperature in a darkened state to allow the enzyme, substrate, and test compound to act. Absorbance was measured at 405 nm using a microplate reader (Tecan spark), and IC50 was calculated using GraphPad Prism 9. The amount of p-nitrophenol produced was calculated through the absorbance, and the degree of TNAP activity inhibition was evaluated through the degree of inhibition of p-nitrophenol production, and the concentration of the compound that inhibited 50% was calculated as the IC50 value.

SMILES	IC50 [2] [nM]	inhibition at 1 µM [1] [%]
COc1ccc(-c2ccc(OC)c(S(=O)(=O)Nc3cnc4c(c3)C(=O)NCC4)c2)cc1 [Example 30, 4,4'-dimethoxy-N-(5-oxo-5,6,7,8-tetrahydro-1,6-naphthyridine-3-yl)-[1,1'-biphenyl]-3-sulfonamide]	≥ 1000	0 to 50
O=C1NCCc2ncc(NS(=O)(=O)c3c(F)cc(F)cc3-c3ccc(C4(C(=O)O)CC4)cc3)cc21 [Example 37, 1-(3',5'-difluoro-2'-(N-(5-oxo-5,6,7,8-tetrahydro-1,6-naphthyridine-3-yl)sulfamoyl)-[1,1'-biphenyl]-4-yl)cyclopropane-1-carboxylic acid]	≥ 1000	< 0
O=C1NCCc2ncc(NS(=O)(=O)c3cc(-c4ccc(C5(C(=O)O)CC5)cc4)cc4c3OCC4)cc21 [Example 38, 1-(4-(7-(N-(5-oxo-5,6,7,8-tetrahydro-1,6-naphthyridine-3-yl)sulfamoyl)-2,3-dihydrobenzofuran-5-yl)phenyl)cyclopropane-1-carboxylic acid]	≥ 1000	< 0
NCc1ccc(-c2cc(F)cc(F)c2S(=O)(=O)Nc2cnc3c(c2)C(=O)NCC3)cc1 [Example 40, 4'-(aminomethyl)-3,5-difluoro-N-(5-oxo-5,6,7,8-tetrahydro-1,6-naphthyridine-3-yl)-[1,1'-biphenyl]-2-sulfonamide hydrochloride]	≥ 1000	< 0
NCc1ccc(-c2cc3c(c(S(=O)(=O)Nc4cnc5c(c4)C(=O)NCC5)c2)OCC3)cc1 [Example 41, 5-(4-(aminomethyl)phenyl)-N-(5-oxo-5,6,7,8-tetrahydro-1,6-naphthyridine-3-yl)-2,3-dihydrobenzofuran-7-sulfonamide]	≥ 1000	< 0
COc1ccc(-c2cnc(N)nc2)cc1S(=O)(=O)Nc1cnc2c(c1)C(=O)NCC2 [Example 44, 5-(2-aminopyrimidine-5-yl)-2-methoxy-N-(5-oxo-5,6,7,8-tetrahydro-1,6-naphthyridine-3-yl)benzenesulfonamide]	100 to 1000	≥ 50
COc1ccc(-c2cnn3ccccc23)cc1S(=O)(=O)Nc1cnc2c(c1)C(=O)NCC2 [Example 45, 2-methoxy-N-(5-oxo-5,6,7,8-tetrahydro-1,6-naphthyridine-3-yl)-5-(pyrazolo[1,5-a]pyridine-3-yl)benzenesulfonamide]	100 to 1000	≥ 50
COc1ccc(-c2cc(F)c(O)c(F)c2)cc1S(=O)(=O)Nc1cnc2c(c1)C(=O)NCC2 [Example 46, 3',5'-difluoro-4'-hydroxy-4-methoxy-N-(5-oxo-5,6,7,8-tetrahydro-1,6-naphthyridine-3-yl)-[1,1'-biphenyl]-3-sulfonamide]	100 to 1000	≥ 50
COc1ccc(-c2cnn(CC(=O)OC(C)(C)C)c2)cc1S(=O)(=O)Nc1cnc2c(c1)C(=O)NCC2 [Example 47, tert-butyl 2-(4-(4-methoxy-3-(N-(5-oxo-5,6,7,8-tetrahydro-1,6-naphthyridine-3-yl)sulfamoyl)phenyl)-1H-pyrazole-1-yl)acetate]	100 to 1000	≥ 50

Further lines, with some results ahead:

IC50 [2] [nM]	SMILES	inhibition at 1 µM [1] [%]
100 to 1000	COC(=O)Cc1ccc(-c2ccc(OC)c(S(=O)(=O)Nc3cnc4c(c3)C(=O)NC4)c2)cc1 [Example 27, methyl 2-(4'-methoxy-3'-(N-(5-oxo-6,7-dihydro-5H-pyrrolo[3,4-b]pyridine-3-yl)sulfamoyl)-[1,1'-biphenyl]-4-yl)acetate]	≥ 50
10 to 100	COc1ccc(-c2ccc(CC(=O)O)cc2)cc1S(=O)(=O)Nc1cnc2c(c1)C(=O)NC2 [Example 28, 2-(4'-methoxy-3'-(N-(5-oxo-6,7-dihydro-5H-pyrrolo[3,4-b]pyridine-3-yl)sulfamoyl)-[1,1'-biphenyl]-4-yl)acetic acid]	≥ 50
100 to 1000	COc1ccc(-c2ccc3c(c2)OCCO3)cc1S(=O)(=O)Nc1cnc2c(c1)C(=O)NCC2 [Example 29, 5-(2,3-dihydrobenzo[b][1,4]dioxine-6-yl)-2-methoxy-N-(5-oxo-5,6,7,8-tetrahydro-1,6-naphthyridine-3-yl)benzenesulfonamide]	≥ 50
100 to 1000	COc1ccc(-c2ccncc2)cc1S(=O)(=O)Nc1cnc2c(c1)C(=O)NCC2 [Example 31, 2-methoxy-N-(5-oxo-5,6,7,8-tetrahydro-1,6-naphthyridine-3-yl)-5-(pyridine-4-yl)benzenesulfonamide]	≥ 50
10 to 100	COc1ccc(-c2ccc(C3(C(=O)O)CC3)cc2)cc1S(=O)(=O)Nc1cnc2c(c1)C(=O)NCC2 [Example 32, 1-(4'-methoxy-3'-(N-(5-oxo-5,6,7,8-tetrahydro-1,6-naphthyridine-3-yl)sulfamoyl)-[1,1'-biphenyl]-4-yl)cyclopropane-1-carboxylic acid]	≥ 50
10 to 100	COc1ccc(-c2ccc(CC(=O)O)cc2)cc1S(=O)(=O)Nc1cnc2c(c1)C(=O)NCC2 [Example 33, 2-(4'-methoxy-3'-(N-(5-oxo-5,6,7,8-tetrahydro-1,6-naphthyridine-3-yl)sulfamoyl)-[1,1'-biphenyl]-4-yl)acetic acid]	≥ 50
100 to 1000	COc1ccc(-c2ccc(C(=O)O)cc2)cc1S(=O)(=O)Nc1cnc2c(c1)C(=O)NCC2 [Example 34, 4'-methoxy-3'-(N-(5-oxo-5,6,7,8-tetrahydro-1,6-naphthyridine-3-yl)sulfamoyl)-[1,1'-biphenyl]-4-carboxylic acid]	≥ 50
≤ 10	O=C(O)Cc1ccc(-c2ccc(F)cc2S(=O)(=O)Nc2cnc3c(c2)C(=O)NCC3)cc1 [Example 35, 2-(4'-fluoro-2'-(N-(5-oxo-5,6,7,8-tetrahydro-1,6-naphthyridine-3-yl)sulfamoyl)-[1,1'-biphenyl]-4-yl)acetic acid]	≥ 50
10 to 100	O=C1NCCc2ncc(NS(=O)(=O)c3cc(F)ccc3-c3ccc(C4(C(=O)O)CC4)cc3)cc21 [Example 36, 1-(4'-fluoro-2'-(N-(5-oxo-5,6,7,8-tetrahydro-1,6-naphthyridine-3-yl)sulfamoyl)-[1,1'-biphenyl]-4-yl)cyclopropane-1-carboxylic acid]	≥ 50
≤ 10	CCOC(=O)C(C)n1cc(-c2ccc(OC)c(S(=O)(=O)Nc3cnc4c(c3)C(=O)NCC4)c2)cn1 (stereo not drawn) [Example 42, ethyl 2-(4-(4-methoxy-3-(N-(5-oxo-5,6,7,8-tetrahydro-1,6-naphthyridine-3-yl)sulfamoyl)phenyl)-1H-pyrazole-1-yl)propanoate]	≥ 50
10 to 100	COc1ccc(-c2cnn(C(C)C(=O)O)c2)cc1S(=O)(=O)Nc1cnc2c(c1)C(=O)NCC2 (stereo not drawn) [Example 43, 2-(4-(4-methoxy-3-(N-(5-oxo-5,6,7,8-tetrahydro-1,6-naphthyridine-3-yl)sulfamoyl)phenyl)-1H-pyrazole-1-yl)propanoic acid]	≥ 50
10 to 100	COc1ccc(-c2cnn(CC(=O)O)c2)cc1S(=O)(=O)Nc1cnc2c(c1)C(=O)NCC2 [Example 48, 2-(4-(4-methoxy-3-(N-(5-oxo-5,6,7,8-tetrahydro-1,6-naphthyridine-3-yl)sulfamoyl)phenyl)-1H-pyrazole-1-yl)acetic acid]	≥ 50

Reference: patent EP4806894A1, “TNAP INHIBITORY COMPOUND AND USE THEREOF” (Rednvia Co., Ltd., priority 2023, dated 2025)
